Measurements: publication PMC12124432, “Antimicrobial Peptide‐Peptoid Macrocycles from the Polymyxin B2 Chemical Space” (Angewandte Chemie (International Ed. in English), 2025)
Converted amounts (≈) assume the structure as drawn. Numbered stars: 1 amine (or outer) side, 2 acyl side, 3 side chain; on linkers, the order of the positions; unused ones are H or OH. Bridge positions count the residues as written; N and C are the ends. Square brackets hold non-standard residues; d marks the D form. Peptide text beside a SMILES is read from it. * marks the point of attachment. NGly(CH2(3-pyridyl)) = O=C(O)CNCc1cccnc1; Propanoyl(3-cHex) = O=C(CCC1CCCCC1)*; Propanoyl(3-cPent) = O=C(CCC1CCCC1)*; Gly(NCH2CH2Ph) = O=C(O)CNCCc1ccccc1; Cyclopentylacetyl = O=C(CC1CCCC1)*; Gly(N-2-aminoethyl) = NCCNCC(=O)O; X1 = O=C(CN(Cc1ccccn1)[*:1])[*:2]; Pentanoyl(4-Me) = CC(C)CCC(=O)*; Gly(N(CH2)3NH2) = NCCCNCC(=O)O; Gly(N-cHex) = O=C(O)CNC1CCCCC1; Gly(N-CH2CH2OH) = O=C(O)CNCCO; N(iPr)Gly = CC(C)NCC(=O)O; Heptanoyl = CCCCCCC(=O)*; NHexGly = CCCCCCNCC(=O)O; Nphe = O=C(O)CNCc1ccccc1; Octanoyl = CCCCCCCC(=O)*; Dab = NCC[C@H](N)C(=O)O; Pentanoyl = CCCCC(=O)*; Nleu = CC(C)CNCC(=O)O; NPrGly = CCCNCC(=O)O; Nlys = NCCCCNCC(=O)O

Assays:
[1] = system: E. coli W3110; assay type: cell-based, Escherichia coli; details: W3110, pH 8.5
Experimental: (§1) Minimal Inhibitory Concentration (MIC)
(§2) Antimicrobial activity was assayed for all the peptide-peptoids against P. aeruginosa PAO1, K. pneumoniae NCTC418, E. coli W3110, A. baumannii ATCC 19606, methicillin-resistant S. aureus COL (MRSA) and for selected peptides on P. aeruginosa PA14, as well as the clinical isolates ZEM-1A and ZEM9A, K. pneumoniae OXA-48, Enterobacter cloacae, Stenotrophomonas maltophilia and Staphylococus epidermidis. To determine the Minimal Inhibitory Concentration (MIC), Broth Microdilution method was used. A colony of bacteria was picked and grown in LB medium overnight at 37 °C. The next day, the culture was then regrown in LB medium to log phase (OD600 = 0.6 to 0.8), which lasted approximately 4 hours, and diluted to an OD600 of 0.022 in the desired medium (full MH or 12.5% MH).
(§3) The compounds were prepared as stock solutions of 2 mg/mL in sterilized MilliQ deionized water and then diluted in the desired media (full MH or 12.5% MH) to reach the first concentration tested (32 μg/mL). The compounds were added to the first well of a 96-well sterile, round bottom microtiter plates in polystyrene (TPP®, untreated) and diluted serially by ½ in the desired media (full MH or 12.5% MH), to a final volume of 150 µL/well. To each well was finally added 4 µL of the diluted bacterial suspension (see above), corresponding to approximately 5×10^5 CFU. For each test, two columns of the plate were kept for sterility control (medium only), growth control (medium with bacterial inoculum, no compound). The positive control, Polymyxin B (starting with a concentration of 16 µg/mL) in MH medium with bacterial inoculums, was introduced in the two first lines of the plate. The plates were incubated at 37 °C for ca. 18 hours under static conditions. 15 µL of 3-(4,5-dimethylthiazol-2-yl)-2,5-diphenyltetrazolium bromide (MTT)[7] (1 mg/mL in sterilized MilliQ deionized water) were added to each well and the plates were incubated for 20-30 minutes at room temperature. The […]
(§4) minimal inhibitory concentration (MIC) was defined as the lowest concentration of the compound that inhibits the visible growth of the tested bacteria (yellow) with the unaided eye.
(§5) Minimal Hemolytic Concentration (MHC) […]
(§6) 11. Minimal inhibitory in presence of salt
(§7) The same procedure as for the antibacterial activity measurements by minimal inhibitory concentration assay (MIC) was applied. The media, 12.5% Mueller-Hinton broth was this time supplemented with different salt concentrations (0, 100, 200 300 mM NaCl). […]
(§8) All data, in μg/mL, measured against P. aeruginosa PAO1, with or without addition of salt (NaCl). The values were measured in dilute medium (12.5% MH) and at slightly basic pH (pH = 8.5), after incubation for 16-20 h at 37 °C. Values represent two different duplicate MIC determinations.

[2] = system: P. aeruginosa PAO1; assay type: cell-based, Pseudomonas aeruginosa; details: PAO1, pH 8.5
Experimental: as §1, §2, §3, §4, §5, §6
as §7, with “NaCl). The MIC activities were then determined against Pseudomonas aeruginosa PAO1 and Escherichia coli” for “NaCl).”
Table S6. Minimal inhibitory concentration (MIC) on P. aeruginosa PAO1 as function of salt […]
as §8

| SMILES | MIC on E. coli, 0 mM NaCl [1] | MIC on E. coli, 100 mM NaCl [1] | MIC on E. coli, 200 mM NaCl [1] | MIC on E. coli, 300 mM NaCl [1] | MIC on P. aeruginosa, 0 mM NaCl [2] | MIC on P. aeruginosa, 100 mM NaCl [2] | MIC on P. aeruginosa, 200 mM NaCl [2] | MIC on P. aeruginosa, 300 mM NaCl [2] |
| --- | --- | --- | --- | --- | --- | --- | --- | --- |
| CC(C)C[C@H](NC(=O)CN(CC(C)C)C(=O)[C@H](CC(C)C)NC(=O)CN(CCCCN)C(=O)[C@H](CC(C)C)NC(=O)CN(CC(C)C)C(=O)[C@H](CCCCN)NC(=O)CN(CC(C)C)C(=O)[C@H](CC(C)C)NC(=O)CN(CCCCN)C(=O)[C@@H](N)CCCCN)C(N)=O [EB9, reference compound] (H-K[Nlys]L[Nleu]K[Nleu]L[Nlys]L[Nleu]L-NH2) | 2 µg/mL (≈ 1.51 µM) | 16 µg/mL (≈ 12.1 µM) | 64 µg/mL (≈ 48.4 µM) | > 64 µg/mL | 2 µg/mL (≈ 1.51 µM) | 32 µg/mL (≈ 24.2 µM) | > 64 µg/mL | > 64 µg/mL |
| CCCCCCCC(=O)N(CCN)CC(=O)N[C@@H](Cc1ccc(O)cc1)C(=O)N[C@@H](CCCCN)C(=O)N[C@H]1CCNC(=O)[C@H](CCCCN)NC(=O)CN(CCN)C(=O)[C@H](CCCNC(=N)N)NC(=O)[C@H](CCCCN)NC1=O [EB14] (Octanoyl-[Gly(N-2-aminoethyl)]YK[Dab]KR[Gly(N-2-aminoethyl)]K; lactam 4-C) | 1 µg/mL (≈ 0.885 µM) | 16 µg/mL (≈ 14.2 µM) | 64 µg/mL (≈ 56.6 µM) | > 64 µg/mL | 4 µg/mL (≈ 3.54 µM) | > 64 µg/mL | > 64 µg/mL | > 64 µg/mL |
| CCCCCCCC(=O)N(CC(=O)N(CCN)CC(=O)N[C@@H](CCC(N)=O)C(=O)N[C@H]1CCNC(=O)[C@H](CCCCN)NC(=O)[C@H](CCCCN)NC(=O)CN(CCCCN)C(=O)[C@H](CCCCN)NC1=O)Cc1ccccn1 [EB16] (Octanoyl-[X1][Gly(N-2-aminoethyl)]Q[Dab]K[Nlys]KK; lactam 4-C) | 0.5 µg/mL (≈ 0.448 µM) | 32 µg/mL (≈ 28.7 µM) | > 64 µg/mL | > 64 µg/mL | 4 µg/mL (≈ 3.59 µM) | > 64 µg/mL | > 64 µg/mL | > 64 µg/mL |
| CC(C)[C@@H]1NC(=O)[C@H](CCCCN)NC(=O)CN(CCN)C(=O)[C@H](CC(N)=O)NC(=O)[C@@H](NC(=O)CN(CCN)C(=O)[C@H](CCCCN)NC(=O)CN(CCc2ccccc2)C(=O)CC2CCCC2)CCNC(=O)[C@H](CCCCN)NC1=O [EB20] (Cyclopentylacetyl-[Gly(NCH2CH2Ph)]K[Gly(N-2-aminoethyl)][Dab]N[Gly(N-2-aminoethyl)]KVK; lactam 4-C; N-terminus assumed) | 1 µg/mL (≈ 0.855 µM) | 64 µg/mL (≈ 54.7 µM) | > 64 µg/mL | > 64 µg/mL | 16 µg/mL (≈ 13.7 µM) | > 64 µg/mL | > 64 µg/mL | > 64 µg/mL |
| CCCCCCN(CC(=O)N[C@H]1CCNC(=O)[C@H](CCCCN)NC(=O)CN(CCN)C(=O)CN(CCN)C(=O)[C@H](CCCCN)NC(=O)[C@H](CC(N)=O)NC(=O)[C@H](CCCCN)NC1=O)C(=O)[C@H](CCCCN)NC(=O)CN(Cc1ccccc1)C(=O)CCCC [EB22] (Pentanoyl-[Nphe]K[NHexGly][Dab]KNK[Gly(N-2-aminoethyl)][Gly(N-2-aminoethyl)]K; lactam 4-C) | 1 µg/mL (≈ 0.769 µM) | 16 µg/mL (≈ 12.3 µM) | > 64 µg/mL | > 64 µg/mL | 4 µg/mL (≈ 3.08 µM) | > 64 µg/mL | > 64 µg/mL | > 64 µg/mL |
| CCCCCCC(=O)N(CC(=O)N(CCCN)CC(=O)N(CCN)CC(=O)N[C@H]1CCNC(=O)[C@H](CCCCN)NC(=O)CN(C2CCCCC2)C(=O)CN(CCN)C(=O)[C@H](CCC(N)=O)NC(=O)[C@H](CCCNC(=N)N)NC1=O)Cc1ccccc1 [EB23] (Heptanoyl-[Nphe][Gly(N(CH2)3NH2)][Gly(N-2-aminoethyl)][Dab]RQ[Gly(N-2-aminoethyl)][Gly(N-cHex)]K; lactam 4-C) | 2 µg/mL (≈ 1.63 µM) | > 64 µg/mL | > 64 µg/mL | > 64 µg/mL | 16 µg/mL (≈ 13.1 µM) | > 64 µg/mL | > 64 µg/mL | > 64 µg/mL |
| CCCN1CC(=O)N[C@@H](CC(N)=O)C(=O)N[C@@H](CCCCN)C(=O)N(CCCN)CC(=O)N[C@@H](CCCCN)C(=O)NCC[C@H](NC(=O)[C@H](CCCNC(=N)N)NC(=O)CNC(=O)CN(CCc2ccccc2)C(=O)CCC(C)C)C1=O [EB26] ({Pentanoyl(4-Me)}-[Gly(NCH2CH2Ph)]GR[Dab][NPrGly]NK[Gly(N(CH2)3NH2)]K; lactam 4-C) | 4 µg/mL (≈ 3.46 µM) | 16 µg/mL (≈ 13.8 µM) | > 64 µg/mL | > 64 µg/mL | 16 µg/mL (≈ 13.8 µM) | > 64 µg/mL | > 64 µg/mL | > 64 µg/mL |
| NCCCC[C@@H]1NC(=O)CN(CCO)C(=O)[C@@H]2CCCN2C(=O)CN(CCCN)C(=O)[C@@H](NC(=O)[C@H](CC(N)=O)NC(=O)[C@H](CCCCN)NC(=O)[C@H](CCCCN)NC(=O)CN(Cc2ccccc2)C(=O)CCC2CCCC2)CCNC1=O [EB32] ({Propanoyl(3-cPent)}-[Nphe]KKN[Dab][Gly(N(CH2)3NH2)]P[Gly(N-CH2CH2OH)]K; lactam 5-C) | 4 µg/mL (≈ 3.38 µM) | > 64 µg/mL | > 64 µg/mL | > 64 µg/mL | 32 µg/mL (≈ 27.1 µM) | > 64 µg/mL | > 64 µg/mL | > 64 µg/mL |
| CCCCCCCC(=O)N(CC(=O)N(CCCN)CC(=O)N[C@@H](CCC(N)=O)C(=O)N[C@H]1CCNC(=O)[C@H](CCCCN)NC(=O)[C@H](CCCCN)NC(=O)[C@H](CCC(N)=O)NC(=O)CN(CCCCN)C1=O)Cc1cccnc1 [EB34] (Octanoyl-[NGly(CH2(3-pyridyl))][Gly(N(CH2)3NH2)]Q[Dab][Nlys]QKK; lactam 4-C) | 8 µg/mL (≈ 7.08 µM) | > 64 µg/mL | > 64 µg/mL | > 64 µg/mL | 32 µg/mL (≈ 28.3 µM) | > 64 µg/mL | > 64 µg/mL | > 64 µg/mL |
| CC(C)N(CC(=O)N[C@@H](CC(N)=O)C(=O)N[C@H]1CCNC(=O)[C@H](CCCCN)NC(=O)[C@H](CC(N)=O)NC(=O)CN(CCCCN)C(=O)[C@H](CCCCN)NC(=O)[C@H](CO)NC1=O)C(=O)CN(Cc1ccccc1)C(=O)CCC1CCCCC1 [EB36] ({Propanoyl(3-cHex)}-[Nphe][N(iPr)Gly]N[Dab]SK[Nlys]NK; lactam 4-C) | 16 to 32 µg/mL | > 64 µg/mL | > 64 µg/mL | > 64 µg/mL | 32 µg/mL (≈ 27 µM) | > 64 µg/mL | > 64 µg/mL | > 64 µg/mL |
